Read-outs that look alike come from different tables or passages of the source.
How the values were obtained:
[1] = system: HCV replicon cells; assay: HCV replicon FRET assay; assay type: cell-based
Source text: FRET Assay Preparation. To perform the HCV FRET screening assay, 96-well cell culture plates were used. The FRET peptide (Anaspec, Inc.) (Taliani et al., Anal. Biochem. 1996, 240, 60-67) contains a fluorescence donor, EDANS, near one end of the peptide and an acceptor, DABCYL, near the other end. The fluorescence of the peptide is quenched by […] resonance energy transfer (RET) between the donor and the acceptor, but as the NS3 protease cleaves the peptide the products are released from RET quenching and the fluorescence of the donor becomes apparent. The assay reagent was made as follows: 5× cell Luciferase cell culture lysis reagent from Promega (#E153A) diluted to 1× with dH2O, NaCl added to 150 mM final, the FRET peptide diluted to 20 uM final from a 2 mM stock.
To prepare plates, HCV replicon cells, with or without a Renilla luciferase reporter gene, were trypsinized and placed into each well of a 96-well plate with titrated test compounds added in columns 3 through 12; columns 1 and 2 contained a control compound (HCV protease inhibitor), and the bottom row contained cells without compound. The plates were then placed in a CO2 incubator at 37° C.
Assays. Subsequent to addition of the test compounds described above (FRET Assay Preparation), at various times the plate was removed and Alamar blue solution (Trek Diagnostics, #00-100) was added per well as a measure of cellular toxicity. After reading in a Cytoflour 4000 instrument (PE Biosystems), plates were rinsed with PBS and then used for FRET assay by the addition of 30 ul of the FRET peptide assay reagent described above (FRET Assay Preparation) per well. The plate was then placed into the Cytoflour 4000 instrument which had been set to 340 excite/490 emission, automatic mode for 20 cycles and the plate read in a kinetic mode. Typically, the signal to noise using an endpoint analysis after the reads was at least three-fold. Alternatively, after Alamar blue reading, plates were rinsed with PBS, 50 ul of DMEM (high glucose) without phenol red was added and plates were then used for luciferase assay using the Promega Dual-Glo Luciferase Assay System.
Compound analysis was determined by quantification of the relative HCV replicon inhibition and the relative cytotoxicity values. To calculate cytoxicity values, the average Alamar Blue fluorescence signals from the control wells were set as 100% non-toxic. The individual signals in each of the compound test wells were then divided by the average control signal and multiplied by 100% to determine […]. To calculate the HCV replicon inhibition values, an average background value was obtained from the two wells containing the highest amount of HCV protease inhibitor at the end of the assay period. These numbers were similar to those obtained from naïve Huh-7 cells.
The background numbers were then subtracted from the average signal obtained from the control wells and this number was used as 100% activity. The individual signals in each of the compound test wells were then divided by the averaged control values after background subtraction and multiplied by 100% to determine percent activity. EC50 values for a protease inhibitor titration were calculated as the concentration which caused a 50% reduction in FRET or luciferase activity. The two numbers generated for the compound plate, percent cytoxicity and percent activity were used to determine compounds of interest for further analysis.

[2] = molecular target: T1, HCV NS5B RdRp genotype 1b (Hepatitis C virus genotype 1b, UniProt Q9WMX2); assay: Modified HCV NS5B RdRp enzyme assay (preincubation protocol); assay type: biochemical; conditions: HCV NS5B genotype 1b
T1 construct: The protein was expressed with an 18 amino acid C-terminal truncation to enhance the solubility; made in house; host or cells: E. coli BL21(DE3), pET21a vector
T1 sequence (Q9WMX2 2420-2992): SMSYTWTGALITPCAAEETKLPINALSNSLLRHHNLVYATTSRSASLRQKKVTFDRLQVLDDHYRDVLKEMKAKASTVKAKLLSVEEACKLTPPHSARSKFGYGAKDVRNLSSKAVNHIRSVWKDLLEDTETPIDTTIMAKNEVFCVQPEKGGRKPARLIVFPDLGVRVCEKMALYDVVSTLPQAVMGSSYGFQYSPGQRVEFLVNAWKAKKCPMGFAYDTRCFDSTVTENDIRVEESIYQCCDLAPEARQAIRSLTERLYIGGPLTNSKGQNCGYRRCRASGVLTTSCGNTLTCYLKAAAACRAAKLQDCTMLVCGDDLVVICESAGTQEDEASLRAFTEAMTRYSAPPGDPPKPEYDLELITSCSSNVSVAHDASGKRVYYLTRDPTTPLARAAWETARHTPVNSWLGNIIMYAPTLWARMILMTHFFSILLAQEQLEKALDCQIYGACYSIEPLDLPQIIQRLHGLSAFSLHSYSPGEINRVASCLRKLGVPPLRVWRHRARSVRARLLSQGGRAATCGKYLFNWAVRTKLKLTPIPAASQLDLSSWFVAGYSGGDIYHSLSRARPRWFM
Experimental: HCVNS5B RdRp cloning, expression, and purification. The cDNA encoding the NS5B protein of HCV, genotype 1b, was cloned into the pET21a expression vector. The protein was expressed with an 18 amino acid C-terminal truncation to enhance the solubility. The E. coli competent cell line BL21(DE3) was used for expression of the protein. Cultures were grown at 37° C. for ˜4 hours until the cultures reached an optical density of 2.0 at 600 nm. The cultures were cooled to 20° C. and induced with 1 mM IPTG. Fresh ampicillin was added to a final concentration of 50 μg/ml and the cells were grown overnight at 20° C.
Cell pellets (3L) were lysed for purification to yield 15-24 mgs of purified NS5B. The lysis buffer consisted of 20 mM Tris-HCl, pH 7.4, 500 mM NaCl, 0.5% triton X-100, 1 mM DTT, 1 mM EDTA, 20% glycerol, 0.5 mg/ml lysozyme, 10 mM MgCl2, 15 ug/ml deoxyribonuclease I, and Complete TM protease inhibitor tablets (Roche). After addition of the lysis buffer, frozen cell pellets were resuspended using a tissue homogenizer. To reduce the viscosity of the sample, aliquots of the lysate were sonicated on ice using a microtip attached to a Branson sonicator. The sonicated lysate was centrifuged at 100,000×g for 1 hr at 4° C. and filtered through a 0.2 μm filter unit (Corning).
The protein was purified using three sequential chromatography steps: Heparin sepharose CL-6B, polyU sepharose 4B, and Hitrap SP sepharose (Pharmacia). The chromatography buffers were identical to the lysis buffer but contained no lysozyme, deoxyribonuclease I, MgCl2 or protease inhibitor and the NaCl concentration of the buffer was adjusted according to the requirements for charging the protein onto the column. Each column was eluted with a NaCl gradient which varied in length from 5-50 column volumes depending on the column type. After the final chromatography step, the resulting purity of the enzyme is >90% based on SDS-PAGE analysis. The enzyme was aliquoted and stored at −80° C.
Standard HCVNS5B RdRp enzyme assay. HCV RdRp genotype 1b assays were run in a final volume of 60 μl in 96 well plates (Costar 3912). The assay buffer is composed of 20 mM Hepes, pH 7.5, 2.5 mM KCl, 2.5 mM MgCl2, 1 mM DTT, 1.6 U RNAse inhibitor (Promega N2515), 0.1 mg/ml BSA (Promega R3961), and 2% glycerol. All compounds were serially diluted (3-fold) in DMSO and diluted further in water such that the final concentration of DMSO in the assay was 2%. HCV RdRp genotype 1b enzyme was used at a final concentration of 28 nM. A polyA template was used at 6 nM, and a biotinylated oligo-dT12 primer was used at 180 nM final concentration. Template was obtained commercially (Amersham 27-4110). Biotinylated primer was prepared by Sigma Genosys. 3H-UTP was used at 0.6 μCi (0.29 μM total UTP). Reactions were initiated by the addition of enzyme, incubated at 30° C. for 60 min, and stopped by adding 25 μl of 50 mM EDTA containing SPA beads (4 μg/μl, Amersham RPNQ 0007). Plates were read on a Packard Top Count NXT after >1 hr incubation at room temperature.
Modified HCVNS5B RdRp enzyme assay. A modified enzyme assay was performed essentially as described for the standard enzyme assay except for the following: The biotinylated oligo dT12 primer was precaptured on streptavidin-coated SPA beads by mixing primer and beads in assay buffer and incubating at room temperature for one hour. Unbound primer was removed after centrifugation. The primer-bound beads were resuspended in 20 mM Hepes buffer, pH 7.5 and used in the assay at final concentrations of 20 nM primer and 0.67 μg/μl beads. Order of addition in the assay: enzyme (14 nM) was added to diluted compound followed by the addition of a mixture of template (0.2 nM), 3H-UTP (0.6 μCi, 0.29 μM), and primer-bound beads, to initiate the reaction; concentrations given are final. Reactions were allowed to proceed for 4 hours at 30° C.
IC50 values for compounds were determined using seven different [I]. […]

[3] = Hepatitis C virus, FRET assay, HCV replicon cells, read-out: EC50

SMILES	EC50 [1, 3] [nM]	IC50 [2] [nM]	EC50 ([1]; Hepatitis C virus) [nM]	EC50 ([1]; FRET assay, HCV replicon cells, read-out: EC50) [nM]
C[C@@H]1CN(C(=O)C23CC2c2cc(O)ccc2-c2c(C4CCCCC4)c4ccc(C(=O)NS(=O)(=O)N(C)C)cc4n2C3)C[C@H](C)N1C (stereo partly shown)	1 to 500	1 to 500		
C[C@@H]1CN(C(=O)C23CC2c2cc(OCc4ccccc4)ccc2-c2c(C4CCCCC4)c4ccc(C(=O)NS(=O)(=O)N(C)C)cc4n2C3)C[C@H](C)N1C (stereo partly shown)	1 to 500	1 to 500		
COc1ccc2c(c1)C1CC1(C(=O)N1C[C@@H](C)N(C(C)C)[C@@H](C)C1)Cn1c-2c(C2CCCCC2)c2ccc(C(=O)NS(=O)(=O)N(C)C)cc21 (stereo partly shown)	1 to 500	1 to 500		
COc1ccc2c(c1)C1CC1(C(=O)N1C[C@@H](C)N(C)[C@@H](C)C1)Cn1c-2c(C2CCCCC2)c2ccc(C(=O)NS(=O)(=O)C3CC3)cc21 (stereo partly shown)	1 to 500	1 to 500		
COc1ccc2c(c1)C1CC1(C(=O)N1C[C@@H](C)N(C)[C@@H](C)C1)Cn1c-2c(C2CCCCC2)c2ccc(C(=O)NS(=O)(=O)N(C)C)cc21 (stereo partly shown)		1 to 500	1 to 500	
COc1ccc2c(c1)[C@@H]1C[C@]1(C(=O)N1C[C@@H](C)N(C)[C@@H](C)C1)Cn1c-2c(C2CCCCC2)c2ccc(C(=O)NS(=O)(=O)N(C)C)cc21		1 to 500	1 to 500	
COc1ccc2c(c1)[C@H]1C[C@@]1(C(=O)N1C[C@@H](C)N(C)[C@@H](C)C1)Cn1c-2c(C2CCCCC2)c2ccc(C(=O)NS(=O)(=O)N(C)C)cc21		1 to 500	1 to 500	
COc1cccc2c1C1CC1(C(=O)N1C[C@@H](C)N(C)[C@@H](C)C1)Cn1c-2c(C2CCCCC2)c2ccc(C(=O)NS(=O)(=O)N(C)C)cc21 (stereo partly shown)	1 to 500	1 to 500		
COc1ccc2c(c1)C1CC1(C(=O)N1C[C@@H](C)N(C(C)=O)[C@@H](C)C1)Cn1c-2c(C2CCCCC2)c2ccc(C(=O)NS(=O)(=O)N(C)C)cc21 (stereo partly shown)		1 to 500	1 to 500	
COc1ccc2c(c1)C1CC1(C(=O)N1C[C@@H](C)N(C)[C@@H](C)C1)Cn1c-2c(C2CCCCC2)c2ccc(C(=O)NS(=O)(=O)N3CCC3)cc21 (stereo partly shown)	1 to 500	1 to 500		
COc1ccc2c(c1)C1CC1(C(=O)N1[C@H](C)CN(Cc3ccccc3)C[C@@H]1C)Cn1c-2c(C2CCCCC2)c2ccc(C(=O)NS(=O)(=O)N(C)C)cc21 (stereo partly shown)	500 to 1000	1000 to 10000		
COc1ccc2c(c1)C1CC1(C(=O)N1C[C@@H](C)N(C)[C@@H](C)C1)Cn1c-2c(C2CCCCC2)c2ccc(C(=O)NS(=O)(=O)C(C)C)cc21 (stereo partly shown)	1 to 500	1 to 500		
COc1ccc2c(c1)C1CC1(C(=O)N1C[C@@H](C)N(C)[C@@H](C)C1)Cn1c-2c(C2CCCCC2)c2ccc(C(=O)NS(C)(=O)=O)cc21 (stereo partly shown) [drawing 31]	1 to 500	1 to 500		
COc1ccc2c(c1)C1CC1(C(=O)N1C[C@@H](C)N(C)[C@@H](C)C1)Cn1c-2c(C2CCCCC2)c2ccc(C(=O)NS(C)(=O)=O)cc21 (stereo partly shown) [drawing 34]		1 to 500		1 to 500

From patent US7521441B2, “Cyclopropyl fused indolobenzazepine HCV NS5B inhibitors” (Bristol-Myers Squibb Company, priority 2006, dated 2009)
